Data reported in paper PMC10755728, “Inhibitors of the Elastase LasB for the Treatment of Pseudomonas aeruginosa Lung Infections” (ACS Central Science, 2023).

Tests used:
LasB = molecular target: T1, LasB (Pseudomonas aeruginosa, UniProt Q02RJ6); assay: biochemical; assay type: biochemical; details: for inhibition at 100 µM: read-out: % inh LasB @100 µM; for IC50: LasB IC50, FRET-based assay
T1 construct: made in house

[1] = Metabolic stability in human liver S9 fraction; assay type: in vitro ADME
Plasma stability, mouse = assay type: in vitro ADME; details: mouse plasma; read-out: Plasma T1/2 Mouse
MMP-2 = molecular target: T2, MMP-2 (Homo sapiens, UniProt P08253); assay: MMP-2 inhibition assay; assay type: biochemical; details: 100 μM; read-out: % inhibition MMP-2
T2 construct: purchased AnaSpec (Fremont, CA, USA)
T2 sequence (P08253 110-660): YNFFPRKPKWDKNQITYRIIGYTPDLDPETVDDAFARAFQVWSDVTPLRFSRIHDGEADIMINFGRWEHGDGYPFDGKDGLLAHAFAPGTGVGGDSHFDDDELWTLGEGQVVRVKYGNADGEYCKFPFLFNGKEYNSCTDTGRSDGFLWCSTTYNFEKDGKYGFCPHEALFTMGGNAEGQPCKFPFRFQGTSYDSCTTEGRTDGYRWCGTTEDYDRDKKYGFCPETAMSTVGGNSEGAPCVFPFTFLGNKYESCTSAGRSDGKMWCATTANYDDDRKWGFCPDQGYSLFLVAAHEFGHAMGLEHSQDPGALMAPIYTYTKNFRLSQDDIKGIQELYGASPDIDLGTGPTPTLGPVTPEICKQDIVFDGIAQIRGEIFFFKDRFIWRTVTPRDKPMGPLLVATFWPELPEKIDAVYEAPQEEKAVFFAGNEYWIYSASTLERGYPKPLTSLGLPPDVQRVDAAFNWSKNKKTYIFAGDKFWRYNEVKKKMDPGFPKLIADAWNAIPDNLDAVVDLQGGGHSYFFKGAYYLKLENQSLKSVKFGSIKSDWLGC

HDAC-3 = molecular target: T3, HDAC-3 (Homo sapiens, UniProt O15379); assay: HDAC-3 inhibitor screening kit; assay type: biochemical
T3 construct: purchased Sigma-Aldrich (Saint Louis, MO)

MMP-1 = molecular target: T4, MMP-1 (Homo sapiens, UniProt P03956); assay: MMP-1 inhibition assay; assay type: biochemical; details: 100 μM; read-out: % inhibition MMP-1
T4 construct: purchased AnaSpec (Fremont, CA, USA)
T4 sequence (P03956 100-469): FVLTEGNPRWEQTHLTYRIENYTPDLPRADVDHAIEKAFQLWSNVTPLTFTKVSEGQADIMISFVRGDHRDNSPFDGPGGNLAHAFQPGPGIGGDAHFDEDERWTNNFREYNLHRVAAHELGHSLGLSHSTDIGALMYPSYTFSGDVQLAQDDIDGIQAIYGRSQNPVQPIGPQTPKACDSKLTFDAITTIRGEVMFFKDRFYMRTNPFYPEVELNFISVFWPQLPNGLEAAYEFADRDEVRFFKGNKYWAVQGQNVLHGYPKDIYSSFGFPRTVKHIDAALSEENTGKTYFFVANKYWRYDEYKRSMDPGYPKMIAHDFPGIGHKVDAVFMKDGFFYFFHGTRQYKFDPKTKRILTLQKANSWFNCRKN

COX-1 = molecular target: T5, COX-1 (Ovis aries, UniProt P05979); assay: Fluorometric COX-1 inhibitor assay; assay type: biochemical, human
T5 construct: purchased Abcam (Cambridge, UK)
T5 sequence (P05979 25-600): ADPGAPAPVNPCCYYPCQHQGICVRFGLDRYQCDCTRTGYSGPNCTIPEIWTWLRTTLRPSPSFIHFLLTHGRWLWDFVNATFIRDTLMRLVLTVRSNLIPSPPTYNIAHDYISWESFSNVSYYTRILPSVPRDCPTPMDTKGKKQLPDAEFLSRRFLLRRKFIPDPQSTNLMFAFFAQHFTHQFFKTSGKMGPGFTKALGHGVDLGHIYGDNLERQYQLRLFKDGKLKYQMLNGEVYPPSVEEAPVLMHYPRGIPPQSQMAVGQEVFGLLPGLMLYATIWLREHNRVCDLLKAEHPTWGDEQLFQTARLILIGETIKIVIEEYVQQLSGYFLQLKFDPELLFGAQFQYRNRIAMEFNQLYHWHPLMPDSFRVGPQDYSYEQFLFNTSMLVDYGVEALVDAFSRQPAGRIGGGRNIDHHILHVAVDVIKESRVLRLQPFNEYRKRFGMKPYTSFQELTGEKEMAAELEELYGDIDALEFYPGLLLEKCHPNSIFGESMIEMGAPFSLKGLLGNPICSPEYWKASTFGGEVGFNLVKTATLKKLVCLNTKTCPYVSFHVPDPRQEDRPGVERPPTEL

[2] = Metabolic stability in mouse liver S9 fraction; assay type: in vitro ADME
Calu-3 permeability = assay type: in vitro ADME; details: human
HDAC-8 = molecular target: T6, HDAC-8 (Homo sapiens, UniProt Q9BY41); assay: HDAC-8 inhibitor screening kit; assay type: biochemical
T6 construct: purchased Sigma-Aldrich (Saint Louis, MO)
T6 sequence (Q9BY41 1-377): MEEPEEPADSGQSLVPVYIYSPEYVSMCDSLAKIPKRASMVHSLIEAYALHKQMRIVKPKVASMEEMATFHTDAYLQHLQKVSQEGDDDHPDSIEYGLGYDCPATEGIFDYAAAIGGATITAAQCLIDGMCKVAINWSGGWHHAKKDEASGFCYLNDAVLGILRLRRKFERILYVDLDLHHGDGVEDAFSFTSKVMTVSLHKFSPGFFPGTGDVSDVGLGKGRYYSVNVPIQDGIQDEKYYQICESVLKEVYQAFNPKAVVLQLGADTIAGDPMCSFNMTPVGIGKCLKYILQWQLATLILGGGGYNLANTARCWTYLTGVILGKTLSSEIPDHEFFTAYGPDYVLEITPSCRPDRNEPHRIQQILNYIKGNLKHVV

[3] = Lipophilicity determination (LogD7.4, HPLC-MS); assay type: physicochemical; details: pH 7.4, pH 7.4, chromatographic
Procedure: Lipophilicity determination. LogD7.4 was analyzed using an HPLC−MS based method.50 The retention time of 12 compounds with known LogD7.4 was determined and plotted toward their LogD7.4. Linear regression was used to determine the LogD7.4 of unknown compounds. Analysis was performed using a Dionex Ultimate 3000 HPLC system coupled to a TSQ Quantum Access MAX (Thermo Fisher, Dreieich, Germany) with the following conditions: EC150/2 NUCLEODUR C18 Pyramid column, 5 μM (Macherey Nagel, Düren, Germany); eluent A: 50 mM NH4OAc pH 7.4, eluent B: acetonitrile, and flow: 0.6 mL/min.

TACE = molecular target: T7, TACE (Homo sapiens, UniProt P78536); assay: TACE inhibitor screening kit; assay type: biochemical; details: 100 μM; read-out: % inhibition TACE
T7 construct: purchased Sigma-Aldrich (Saint Louis, MO)

MMP-3 = molecular target: T8, MMP-3 (Homo sapiens, UniProt P08254); assay: MMP-3 inhibition assay; assay type: biochemical; details: 100 μM; read-out: % inhibition MMP-3
T8 construct: purchased AnaSpec (Fremont, CA, USA)

HEK293 = details: human, 48 h, 100 µM
Procedure: Culturing of HepG2, A549 and HEK293 cells. The human hepatocellular carcinoma cell line HepG2, the lung adenocarcinoma cell line A549 and Human Embryonic (HEK) 293 cells were cultured in Dulbecco's Modified Eagle Medium (DMEM), containing 10% Fetal Bovine Serum
(FBS) and 1% penicillin-streptomycin mixture. Cells were maintained according to standard cell
Cytotoxicity assay. An MTT-based assay was employed to evaluate the viability of HepG2,
HEK293 and A549 cells after challenge with selected LasB inhibitors and performed as described

ColH-PD = ColH-PD (Hathewaya histolytica, UniProt Q46085); assay: biochemical; assay type: biochemical, Clostridium histolyticum; details: read-out: % inhibition ColH-PD @1 µM
Chain of ColH-PD (Q46085 331-721 limits assumed): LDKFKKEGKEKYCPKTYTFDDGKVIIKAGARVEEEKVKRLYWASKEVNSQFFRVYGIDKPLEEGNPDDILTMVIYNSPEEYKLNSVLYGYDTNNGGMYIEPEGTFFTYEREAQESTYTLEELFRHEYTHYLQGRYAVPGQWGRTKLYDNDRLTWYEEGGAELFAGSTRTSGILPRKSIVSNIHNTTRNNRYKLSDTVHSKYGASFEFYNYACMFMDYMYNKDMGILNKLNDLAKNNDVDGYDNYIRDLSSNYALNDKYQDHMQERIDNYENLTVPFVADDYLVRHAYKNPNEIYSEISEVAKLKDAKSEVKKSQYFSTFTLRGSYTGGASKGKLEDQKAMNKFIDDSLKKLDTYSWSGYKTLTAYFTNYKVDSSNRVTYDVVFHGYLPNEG

T3 sequence (O15379 whole entry): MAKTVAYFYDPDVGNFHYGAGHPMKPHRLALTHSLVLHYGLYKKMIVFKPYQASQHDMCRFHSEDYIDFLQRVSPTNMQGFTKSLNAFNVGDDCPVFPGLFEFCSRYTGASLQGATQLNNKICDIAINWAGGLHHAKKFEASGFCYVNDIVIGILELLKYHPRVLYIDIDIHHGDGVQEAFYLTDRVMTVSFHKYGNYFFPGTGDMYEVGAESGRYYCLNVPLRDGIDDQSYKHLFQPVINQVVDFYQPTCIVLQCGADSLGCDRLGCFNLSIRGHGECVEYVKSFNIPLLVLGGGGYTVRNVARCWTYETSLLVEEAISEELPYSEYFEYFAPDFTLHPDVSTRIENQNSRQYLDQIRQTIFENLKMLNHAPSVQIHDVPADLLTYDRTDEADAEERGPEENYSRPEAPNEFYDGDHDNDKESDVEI
T3 sequence (Q9Y618 395-489 partner limits assumed): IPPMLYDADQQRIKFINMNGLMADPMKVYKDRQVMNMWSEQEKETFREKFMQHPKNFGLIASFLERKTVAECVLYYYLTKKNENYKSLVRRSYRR
T8 sequence (P08254 100-477): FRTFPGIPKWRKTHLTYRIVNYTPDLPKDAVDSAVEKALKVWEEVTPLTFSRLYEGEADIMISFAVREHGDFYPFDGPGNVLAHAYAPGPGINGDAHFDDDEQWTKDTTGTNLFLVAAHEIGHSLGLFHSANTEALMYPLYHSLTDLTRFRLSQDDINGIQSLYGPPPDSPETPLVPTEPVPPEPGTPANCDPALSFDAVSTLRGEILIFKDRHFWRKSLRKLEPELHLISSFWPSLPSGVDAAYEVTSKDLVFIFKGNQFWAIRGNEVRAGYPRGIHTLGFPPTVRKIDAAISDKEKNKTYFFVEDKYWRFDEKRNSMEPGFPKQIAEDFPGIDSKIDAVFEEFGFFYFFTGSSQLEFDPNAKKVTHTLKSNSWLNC
T7 sequence (P78536 215-824): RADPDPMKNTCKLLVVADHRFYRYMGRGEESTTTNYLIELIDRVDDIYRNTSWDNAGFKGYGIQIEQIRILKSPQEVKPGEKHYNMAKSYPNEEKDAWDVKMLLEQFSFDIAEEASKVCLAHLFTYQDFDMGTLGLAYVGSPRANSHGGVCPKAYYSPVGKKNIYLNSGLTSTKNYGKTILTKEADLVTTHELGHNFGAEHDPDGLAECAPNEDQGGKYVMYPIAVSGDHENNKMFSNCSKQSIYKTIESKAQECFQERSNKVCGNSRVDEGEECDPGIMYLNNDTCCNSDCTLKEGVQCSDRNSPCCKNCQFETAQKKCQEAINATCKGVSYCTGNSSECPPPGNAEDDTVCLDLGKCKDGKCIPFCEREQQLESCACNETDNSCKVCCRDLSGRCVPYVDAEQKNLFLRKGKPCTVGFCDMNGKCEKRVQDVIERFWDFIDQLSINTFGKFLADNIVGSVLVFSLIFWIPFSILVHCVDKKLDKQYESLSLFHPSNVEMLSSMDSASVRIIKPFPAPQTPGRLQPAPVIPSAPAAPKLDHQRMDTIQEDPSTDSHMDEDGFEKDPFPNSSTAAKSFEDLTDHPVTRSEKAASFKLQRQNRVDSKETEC
T1 sequence (Q02RJ6 198-498): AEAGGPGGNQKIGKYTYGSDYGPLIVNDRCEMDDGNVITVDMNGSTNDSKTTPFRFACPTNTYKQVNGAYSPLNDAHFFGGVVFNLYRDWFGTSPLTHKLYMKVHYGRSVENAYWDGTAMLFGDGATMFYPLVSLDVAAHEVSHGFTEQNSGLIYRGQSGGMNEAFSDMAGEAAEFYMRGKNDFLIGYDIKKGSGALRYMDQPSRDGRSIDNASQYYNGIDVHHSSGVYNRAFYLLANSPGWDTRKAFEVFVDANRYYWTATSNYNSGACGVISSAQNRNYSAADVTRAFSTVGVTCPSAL

CC(=O)c1ccc(NC(=O)CP(=O)(O)O)cc1 [Compound 2]
inhibition at 600 µM (LasB; read-out: % LasB inhibition @600 µM): 33 ± 4%

Cc1ccc(NC(=O)[C@H](CC(C)C)NC(=O)OC(C)(C)C)cc1 [Compound 3a]
inhibition at 100 µM (LasB): < 10%

Cc1ccc(NC(=O)[C@@H](N)CC(C)C)cc1 [Compound 3b]
inhibition at 100 µM (LasB): < 10%

Cc1ccc(NC(=O)C(CC(C)C)OS(N)(=O)=O)cc1 (stereo not shown) [Compound 3c]
IC50 (LasB): 53 ± 4 µM

CCOC(=O)C(CC(C)C)C(=O)Nc1ccc(C)cc1 (stereo not shown) [Compound 3d]
inhibition at 100 µM (LasB): < 10%

Cc1ccc(NC(=O)C(CC(C)C)C(=O)O)cc1 (stereo not shown) [Compound 3e]
inhibition at 100 µM (LasB): 46 ± 3%

Cc1ccc(NC(=O)C(CC(C)C)S(=O)(=O)O)cc1 (stereo not shown) [Compound 3i]
microsomal CLint at 1 μM [1]: < 5.8 µL/min/mg
half-life at 1 μM (Plasma stability, mouse): > 2.5 h
inhibition at 100 µM (MMP-2): < 10%
inhibition at 100 µM (HDAC-3): < 10%
IC50 (LasB): 16 µM
inhibition at 100 µM (MMP-1): 12 ± 2%
inhibition at 100 µM (COX-1): < 10%
microsomal CLint at 1 μM [2]: < 5.8 µL/min/mg
Papp at 300 min (Calu-3 permeability): 0.47 ± 0.36 ×10⁻⁶ cm/s
inhibition at 100 µM (HDAC-8): < 10%
chromatographic logD [3]: -0.64
inhibition at 100 µM (TACE): < 10%
inhibition at 100 µM (MMP-3): < 10%

Cc1ccc(NC(=O)C(CC(C)C)c2nn[nH]n2)cc1 (stereo not shown) [Compound 3j]
inhibition at 100 µM (LasB): < 10%

Cc1ccc(NC(=O)C(CC(C)C)n2ccnc2)cc1 (stereo not shown) [Compound 3k]
inhibition at 100 µM (LasB): 14 ± 4%

Cc1ccc(NC(=O)C(CC(C)C)n2ccnn2)cc1 (stereo not shown) [Compound 3l]
microsomal CLint at 1 μM [1]: 8.8 ± 1.2 µL/min/mg
half-life at 1 μM (Plasma stability, mouse): > 2.5 h
inhibition at 100 µM (MMP-2): < 10%
inhibition at 100 µM (HDAC-3): < 10%
inhibition at 100 µM (MMP-1): < 10%
inhibition at 100 µM (COX-1): < 10%
microsomal CLint at 1 μM [2]: 90 ± 9 µL/min/mg
Papp at 300 min (Calu-3 permeability): 17 ± 1 ×10⁻⁶ cm/s
inhibition at 100 µM (HDAC-8): < 10%
chromatographic logD [3]: > 1.8
inhibition at 100 µM (TACE): < 10%
inhibition at 100 µM (MMP-3): < 10%

Cc1ccc(NC(=O)C(CC(C)C)n2nccn2)cc1 (stereo not shown) [Compound 3m]
microsomal CLint at 1 μM [1]: 18.5 ± 0.9 µL/min/mg
half-life at 1 μM (Plasma stability, mouse): > 2.5 h
inhibition at 100 µM (MMP-2): < 10%
inhibition at 100 µM (HDAC-3): < 10%
inhibition at 100 µM (MMP-1): < 10%
inhibition at 100 µM (COX-1): < 10%
microsomal CLint at 1 μM [2]: 356 ± 45 µL/min/mg
Papp at 300 min (Calu-3 permeability): 18 ± 1 ×10⁻⁶ cm/s
inhibition at 100 µM (HDAC-8): < 10%
% growth inhibition HEK293 (HEK293): 21 ± 1%
chromatographic logD [3]: > 1.8
inhibition at 100 µM (TACE): < 10%
inhibition at 100 µM (MMP-3): < 10%

Cc1ccc(NC(=O)C(CC(C)C)n2cncn2)cc1 (stereo not shown) [Compound 3n]
inhibition at 100 µM (LasB): < 10%

CCCC(C(=O)Nc1ccc(OC)cc1)P(=O)(O)O (stereo not shown) [Compound 4ab]
IC50 (LasB): 1.11 µM

CCCC(C(=O)Nc1ccc(C(C)=O)cc1)P(=O)(O)O (stereo not shown) [Compound 4ad]
IC50 (LasB): 0.87 ± 0.03 µM

CC(C)CC(C(=O)Nc1ccc(Cl)c(Cl)c1)P(=O)(O)O (stereo not shown) [Compound 4c]
IC50 (LasB): 0.0257 ± 0.0041 µM
fold more active than 4-acetyl (4g) (LasB; vs 4g): 1.6 fold
inhibition at 1 µM (ColH-PD): < 10%
